Assay results published in patent publication US10696692B2, “Amido-benzyl sulfone and sulfoxide derivates” (Forma TM, LLC, priority 2012, dated 2020).
Like-named read-outs stand apart in the source and are kept apart here.

Legend:
[1] = tested on: A2780 cells; assay: Assay 2: In-Vitro Cell Proliferation Assay (A2780 cells, SRB readout, 72 hours); format: cell-based; details: A2780 cells, 72 hours, SRB, read-out: Cell Proliferation (IC50);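 also: viable cells counted via sulforhodamine B staining, absorbance at 570 nm, after 72 h exposure at 37 °C, DMSO 0.1% as control, media-only background subtracted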
[2] = molecular target: NAMPT (Homo sapiens (Human), UniProt P43490); assay: Assay 1: Biochemical Inhibition Assay (NAMPT enzymatic reaction, NMN quantified by mass spectrometry); details: read-out: Biochemical (IC50);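 also: recombinant His-tagged human NAMPT preincubated with compound 15 min, then reacted 30 min at rt with 1 µM NAM, 100 µM PRPP, 2.5 mM ATP, NMN product read by RapidFire MS, normalized to L-Cystathionine internal standard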
Sequence of NAMPT (P43490 whole entry): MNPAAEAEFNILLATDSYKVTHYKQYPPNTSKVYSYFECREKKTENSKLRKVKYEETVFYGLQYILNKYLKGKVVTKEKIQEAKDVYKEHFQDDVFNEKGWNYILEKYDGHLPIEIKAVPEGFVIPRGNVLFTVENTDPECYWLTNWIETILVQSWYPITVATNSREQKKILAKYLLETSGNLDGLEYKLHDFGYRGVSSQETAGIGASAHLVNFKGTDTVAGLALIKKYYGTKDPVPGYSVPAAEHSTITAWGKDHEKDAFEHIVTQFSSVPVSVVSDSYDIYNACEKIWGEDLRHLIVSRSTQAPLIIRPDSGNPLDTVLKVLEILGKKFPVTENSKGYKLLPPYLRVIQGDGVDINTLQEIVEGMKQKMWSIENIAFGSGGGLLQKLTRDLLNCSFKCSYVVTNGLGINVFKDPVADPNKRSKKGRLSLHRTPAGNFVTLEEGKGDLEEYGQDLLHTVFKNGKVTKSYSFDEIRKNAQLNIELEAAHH

SMILES	IC50 [1]	IC50 [2]	IC50 ([1]; Homo sapiens, A2780, 72 h)
O=C(NCc1ccc(S(=O)(=O)C2CCOCC2)cc1)c1cnc2nccn2c1 [Example 21, Imidazo[1,2-a]pyrimidine-6-carboxylic acid 4-(tetrahydro-pyran-4-sulfonyl)-benzylamide]	185 nM	8.7 nM	
O=C(NCc1ccc(S(=O)(=O)N2CCN(CC(F)(F)F)CC2)cc1)c1ccc2nccn2c1 [Example 25, Imidazo[1,2-a]pyridine-6-carboxylic acid 4-[4-(2,2,2-trifluoro-ethyl)-piperazine-1-sulfonyl]-benzylamide]		24.2 nM	10.5 nM
O=C(NCc1ccc(S(=O)(=O)N2CC3CCC(C2)O3)cc1)c1cnc2nccn2c1 [Example 26, Imidazo[1,2-a]pyrimidine-6-carboxylic acid 4-(8-oxa-3-aza-bicyclo[3.2.1]octane-3-sulfonyl)-benzylamide]		4.6 nM	135 nM
O=C(NCc1ccc(S(=O)(=O)N2CC3CCC(C2)O3)cc1)c1cnc2[nH]ncc2c1 [Example 27, 1H-Pyrazolo[3,4-b]pyridine-5-carboxylic acid 4-(8-oxa-3-aza-bicyclo[3.2.1]octane-3-sulfonyl)-benzylamide]		142 nM	132 nM
O=C(NCc1ccc(S(=O)(=O)N2CCC(O)CC2)cc1)c1ccc2nccn2c1 [Example 28, Imidazo[1,2-a]pyridine-6-carboxylic acid 4-(4-hydroxy-piperidine-1-sulfonyl)-benzylamide]		23.5 nM	27.6 nM
O=C(NCc1ccc(S(=O)(=O)N2CCC(O)CC2)cc1)c1cnc2nccn2c1 [Example 29, Imidazo[1,2-a]pyrimidine-6-carboxylic acid 4-(4-hydroxy-piperidine-1-sulfonyl)-benzylamide]		7.5 nM	545 nM
O=C(NCc1ccc(S(=O)(=O)N2CCC(O)CC2)cc1)c1cnc2[nH]ncc2c1 [Example 30, 1H-Pyrazolo[3,4-b]pyridine-5-carboxylic acid 4-(4-hydroxy-piperidine-1-sulfonyl)-benzylamide]		178 nM	205 nM
O=C(NCc1ccc(S(=O)(=O)N2CCC(O)CC2)cc1)c1cc2cnccc2[nH]1 [Example 31, 1H-Pyrrolo[3,2-c]pyridine-2-carboxylic acid 4-(4-hydroxy-piperidine-1-sulfonyl)-benzylamide]		55 nM	48.2 nM
NC1CCN(S(=O)(=O)c2ccc(CNC(=O)c3cc4ccncc4s3)cc2)CC1 [Example 36, Thieno[2,3-c]pyridine-2-carboxylic acid 4-(4-amino-piperidine-1-sulfonyl)-benzylamide]		11.3 nM	46.3 nM
O=C(NCc1ccc(S(=O)(=O)N2CCC(NCC(F)F)CC2)cc1)c1cnc2[nH]ncc2c1 [Example 37, 1H-Pyrazolo[3,4-b]pyridine-5-carboxylic acid 4-[4-(2,2-difluoro-ethylamino)-piperidine-1-sulfonyl]-benzylamide]		44.1 nM	13.9 nM
O=C(NCc1ccc(S(=O)(=O)N2CCC(O)CC2)cc1)c1cc2ccncc2o1 [Example 38, Furo[2,3-c]pyridine-2-carboxylic acid 4-(4-hydroxy-piperidine-1-sulfonyl)-benzylamide]		26.5 nM	62.1 nM
COCCNC1CCN(S(=O)(=O)c2ccc(CNC(=O)c3cnc4[nH]ncc4c3)cc2)CC1 [Example 39, 1H-Pyrazolo[3,4-b]pyridine-5-carboxylic acid 4-[4-(2-methoxy-ethylamino)-piperidine-1-sulfonyl]-benzylamide]		83.5 nM	94.7 nM
O=C(NCc1ccc(S(=O)(=O)N2CCN(C3CCCCC3)CC2)cc1)c1ccc2nccn2c1 [Example 40, Imidazo[1,2-a]pyridine-6-carboxylic acid 4-(4-cyclohexyl-piperazine-1-sulfonyl)-benzylamide]		17.1 nM	6.9 nM
CC(C)CN1CCN(S(=O)(=O)c2ccc(CNC(=O)c3ccc4nccn4c3)cc2)CC1 [Example 43, Imidazo[1,2-a]pyridine-6-carboxylic acid 4-(4-isobutyl-piperazine-1-sulfonyl)-benzylamide]		21.6 nM	7.2 nM
N[C@H]1C[C@H]2CC[C@@H](C1)N2S(=O)(=O)c1ccc(CNC(=O)c2cc3ccncc3s2)cc1 [Example 44, Thieno[2,3-c]pyridine-2-carboxylic acid 4-((1R,3R,5S)-3-amino-8-aza-bicyclo[3.2.1]octane-8-sulfonyl)-benzylamide]		5.8 nM	23.2 nM
O=C(NCc1ccc(S(=O)(=O)N2CCCCC2)cc1)c1ccc2ncnn2c1 [Example 45, [1,2,4]Triazolo[1,5-a]pyridine-6-carboxylic acid 4-(piperidine-1-sulfonyl)-benzylamide]		17.2 nM	1000 nM
C[C@@H]1CN(S(=O)(=O)c2ccc(CNC(=O)c3cc4ccncc4s3)cc2)C[C@H](C)N1 [Example 46, Thieno[2,3-c]pyridine-2-carboxylic acid 4-((3R,5S)-3,5-dimethyl-piperazine-1-sulfonyl)-benzylamide]		43.5 nM	4.4 nM

SMILES	IC50 [1]	IC50 [2]	IC50 ([1]; Homo sapiens, A2780, 72 h)
O=C(NCc1ccc(S(=O)(=O)N2CCCCC2)cc1)c1ccn2nccc2c1 [Example 48, Pyrazolo[1,5-a]pyridine-5-carboxylic acid 4-(piperidine-1-sulfonyl)-benzylamide]		46.1 nM	2000 nM
O=C(NCc1ccc(S(=O)(=O)N2CCC[C@@H](O)C2)cc1)c1cc2cnccc2[nH]1 [Example 50, 1H-Pyrrolo[3,2-c]pyridine-2-carboxylic acid 4-((R)-3-hydroxy-piperidine-1-sulfonyl)-benzylamide]		36.2 nM	23.9 nM
O=C(NCc1ccc(S(=O)(=O)N2CCC[C@H](O)C2)cc1)c1cc2ccncc2o1 [Example 51, Furo[2,3-c]pyridine-2-carboxylic acid 4-((S)-3-hydroxy-piperidine-1-sulfonyl)-benzylamide]	39.7 nM	22.2 nM	
O=C(NCc1ccc(S(=O)(=O)N2CCC[C@H](O)C2)cc1)c1cc2cnccc2[nH]1 [Example 52, 1H-Pyrrolo[3,2-c]pyridine-2-carboxylic acid 4-((S)-3-hydroxy-piperidine-1-sulfonyl)-benzylamide]		27.6 nM	18.6 nM
O=C(NCc1ccc(S(=O)(=O)N2CCC[C@@H](O)C2)cc1)c1ccc2nccn2c1 [Example 53, Imidazo[1,2-a]pyridine-6-carboxylic acid 4-((R)-3-hydroxy-piperidine-1-sulfonyl)-benzylamide]		16.9 nM	22.6 nM
O=C(NCc1ccc(S(=O)(=O)N2CCC[C@H](O)C2)cc1)c1ccc2nccn2c1 [Example 54, Imidazo[1,2-a]pyridine-6-carboxylic acid 4-((S)-3-hydroxy-piperidine-1-sulfonyl)-benzylamide]		15.6 nM	11.4 nM
CC(C)(C)OC(=O)NC1CCN(S(=O)(=O)c2ccc(CNC(=O)c3ccc4nccn4c3)cc2)CC1 [Example 55, [1-(4-{[(lmodazo[1,2-a]pyridine-6-carbonyl)-amino]-methyl}-benzenesulfonyl)-piperidin-4-yl]-carbamic acid tert-butyl ester]		7.7 nM	4.3 nM
N#CCCNC1CCN(S(=O)(=O)c2ccc(CNC(=O)c3cnc4[nH]ncc4c3)cc2)CC1 [Example 57, 1H-Pyrazolo[3,4-b]pyridine-5-carboxylic acid 4-[4-(2-cyano-ethylamino)-piperidine-1-sulfonyl]-benzylamide]		64.8 nM	55.5 nM
O=C(NCc1ccc(S(=O)(=O)N2CCCCC2)cc1)c1ccn2nccc2n1 [Example 58, Pyrazolo[1,5-a]pyrimidine-5-carboxylic acid 4-(piperidine-1-sulfonyl)-benzylamide]		240 nM	2000 nM
C[C@@H]1CN(S(=O)(=O)c2ccc(CNC(=O)c3ccc4nccn4c3)cc2)C[C@H](C)N1 [Example 60, cis-Imidazo[1,2-a]pyridine-6-carboxylic acid 4-((3R,5S)-3,5-dimethyl-piperazine-1-sulfonyl)-benzylamide]		29.4 nM	15.2 nM
C[C@@H]1CN(S(=O)(=O)c2ccc(CNC(=O)c3cc4ccncc4o3)cc2)C[C@H](C)N1 [Example 61, cis-Furo[2,3-c]pyridine-2-carboxylic acid 4-((3R,5S)-3,5-dimethyl-piperazine-1-sulfonyl)-benzylamide]		21.5 nM	23.3 nM
O=C(NCc1ccc(S(=O)(=O)C2CCN(CC(F)(F)F)CC2)cc1)c1cnc2nccn2c1 [Example 64, Imidazo[1,2-a]pyrimidine-6-carboxylic acid 4-[1-(2,2,2-trifluoro-ethyl)-piperidine-4-sulfonyl]-benzylamide]	8.8 nM	3.7 nM	
O=C(NCc1ccc(S(=O)(=O)C2CCN(CC(F)(F)F)CC2)cc1)c1ccc2nccn2c1 [Example 65, Imidazo[1,2-a]pyridine-6-carboxylic acid 4-[1-(2,2,2-trifluoro-ethyl)-piperidine-4-sulfonyl]-benzylamide]	2.1 nM	12.4 nM	
O=C(NCc1ccc(S(=O)(=O)C2CCN(CC(F)(F)F)CC2)cc1)c1cc2cnccc2[nH]1 [Example 66, 1H-Pyrrolo[3,2-c]pyridine-2-carboxylic acid 4-[1-(2,2,2-trifluoro-ethyl)-piperidine-4-sulfonyl]-benzylamide]	3.2 nM	15.4 nM	
O=C(NCc1ccc(S(=O)(=O)C2CCN(CC(F)(F)F)CC2)cc1)c1cc2ccncc2o1 [Example 67, Furo[2,3-c]pyridine-2-carboxylic acid 4-[1-(2,2,2-trifluoro-ethyl)-piperidine-4-sulfonyl]-benzylamide]	5.4 nM	13.5 nM	
O=C(NCc1ccc(S(=O)(=O)C2CCN(C3CCOCC3)CC2)cc1)c1ccc2nccn2c1 [Example 69, Imidazo[1,2-a]pyridine-6-carboxylic acid 4-[1-(tetrahydro-pyran-4-yl)-piperidine-4-sulfonyl]-benzylamide]	4.7 nM	13.6 nM	
